Test results reported in US20260294770A1, “FORMULATIONS OF NARINGENIN” (DEBUT BIOTECHNOLOGY, INC., priority 2023, published 2026).
“Also recorded” adds a separate entry of the source.

Legend:
[1] = system: MIR205; assay: Upregulation of gene expression and/or activity, 1% naringenin: MIR205
Excerpt: (§1) In certain embodiments, administration of a composition comprising naringenin leads to up-regulation of LCE5A, KRT77, ALOXE3, KRT1, HPGD, MUCL1, CASP14, WFDC12, KRT10, DNASE1L2, IL37, SERPINB12, HAL, UPK1A, CALML5, LCE2B, and/or MIR205. In certain embodiments, administration of a composition comprising naringenin leads to down-regulation of CCL11, CSF2, IL23A, IL11, BMP6, IL13RA2, C2CD4A, NR4A2, C2CD4B, FGF2, FARP4, GDF15, THBS1, HSPA1A, PTGS2, and/or DKK1. Tables 10 and 11 provide data for upregulation and downregulation respectively of certain genes after administration of compositions comprising 1% naringenin.
MicroRNA 205 (MIR205) plays a role in clearance of damaged cells. In certain embodiments, administration of compositions comprising naringenin leads to upregulation of MIR205, which leads to increase clearance of damaged cells. This increase in clearance of damaged cells leads to enhancement in cell turnover and/or recycling, which results in an improvement in anti-aging effect. […] In certain embodiments, the administration of composition comprising naringenin results in at least about 2 to about 10-fold upregulation of expression and/or activity of MIR205. In certain embodiments, the administration of composition comprising naringenin results in at least about five (5) fold upregulation of expression and/or activity of MIR205.

[2] = Solubility of naringenin in various solvents; format: physicochemical
Procedure: The invention recognizes that the solvent used for preparing naringenin compositions should be any solvent acceptable to be used in cosmetic formulations. In certain embodiments of the invention, naringenin is dissolved in a solvent selected from a group consisting of: dimethyl isosorbide, ethoxydiglycol, isopropyl lauryl sarcosinate, pentylene glycol, propanediol, 1,2-hexanediol, and/or butylene glycol. In certain preferred embodiments, naringenin is dissolved in dimethyl isosorbide. In certain embodiments, naringenin is dissolved in isopropyl lauryl sarcosinate. In certain embodiments, naringenin is dissolved in ethoxydiglycol. In certain embodiments, the solvent is a glycol. In certain embodiments, the glycol is selected from a group consisting of pentylene glycol, butylene glycol, and any combination thereof. In certain embodiments, the solvent is selected from a group consisting of: phenylpropanol, 1,2-hexanediol, propanediol, isopentyldiol, 1,2 heptanediol, and any combination thereof.
Table 1 provides the solubility data for naringenin in several solvents. […]

[3] = system: LCE2B; assay: Upregulation of gene expression and/or activity, 1% naringenin: LCE2B
Excerpt: as §1
Late cornified envelope 2B (LCE2B) plays a role in the formation of precursors of the cornified envelope of the stratum corneum. It also leads to improved formation of outer skin protective barrier. In certain embodiments, the administration of composition comprising naringenin results in upregulation of LCE2B, which has a role in enhancing the outer skin protective barrier. In certain embodiments, the administration of composition comprising naringenin results in at least about 5 to about 20-fold upregulation of expression and/or activity of LCE2B. In certain embodiments, the administration of composition comprising naringenin results in at least about five (5) fold upregulation of expression and/or activity of LCE2B.

[4] = system: MUCL1; assay: Upregulation of gene expression and/or activity, 1% naringenin: MUCL1
Excerpt: as §1

[5] = system: IL13RA2; assay: Downregulation of gene expression and/or activity, 1% naringenin: IL13RA2
Excerpt: as §1
Interleukin 13 receptor subunit alpha 2 (IL13RA2) plays a role in recovery after stressor caused inflammatory response. In certain embodiments, downregulation of IL13RA2 leads to improved recovery after inflammation caused by stressors. In certain embodiments, the administration of composition comprising naringenin results in at least about 5 to about 15-fold downregulation of expression and/or activity of IL13RA2. In certain embodiments, the administration of composition comprising naringenin results in at least about ten (10) fold downregulation of expression and/or activity of IL13RA2.

[6] = system: HAL; assay: Upregulation of gene expression and/or activity, 1% naringenin: HAL
Excerpt: as §1

[7] = system: IL23A; assay: Downregulation of gene expression and/or activity, 1% naringenin: IL23A
Excerpt: as §1
Interleukin 23A (1L23A) plays a role in the inflammatory pathway. In certain embodiments of the invention, downregulation of IL23A leads to an anti-inflammatory activity. In certain embodiments, the administration of composition comprising naringenin results in at least about 10 to about 20-fold downregulation of expression and/or activity of 1L23A. In certain embodiments, the administration of composition comprising naringenin results in at least about fifteen (15) fold downregulation of expression and/or activity of IL23A.

[8] = system: GDF15; assay: Downregulation of gene expression and/or activity, 1% naringenin: GDF15
Excerpt: as §1
Growth differentiation factor 15 (GDF15) plays a role in the inflammatory response. In certain embodiments, downregulation of GDF15 results in reduction in inflammation. In certain embodiments, the administration of composition comprising naringenin results in at least about 2 to about 10-fold downregulation of expression and/or activity of GDF15. In certain embodiments, the administration of composition comprising naringenin results in at least about five (5) fold downregulation of expression and/or activity of GDF15.

[9] = system: THBS1; assay: Downregulation of gene expression and/or activity, 1% naringenin: THBS1; conditions: negative = downregulation
Excerpt: as §1

## O=C1C[C@@H](c2ccc(O)cc2)Oc2cc(O)cc(O)c21 [naringenin, (2S)-5,7-Dihydroxy-2-(4-hydroxyphenyl)-2,3-dihydro-4H-1-benzopyran-4-one]
[1]
  Fold-increase in expression and/or activity of MIR205: ~6 fold
[2]; in Helianthus Annuus (Sunflower) Seed Oil / sunflower oil
  Solubility (in words): insoluble in Helianthus Annuus (Sunflower) Seed Oil; also recorded: not soluble in sunflower oil
[2]; in water
  Solubility (in words): poorly soluble or insoluble in water
[2]; solvent: 1,2 heptanediol
  Naringenin Solubility: 2.50 % w/w
[2]; solvent: 1,2 hexanediol
  Naringenin Solubility: 2.50 % w/w
[2]; solvent: 1,2 propanediol
  Naringenin Solubility: 0.00 % w/w
[2]; solvent: 3-methyl-1,3-butanediol
  Naringenin Solubility: 0.00 % w/w
[2]; solvent: Butylene glycol
  Naringenin Solubility: 2.50 % w/w
[2]; solvent: C9-12 alkane
  Naringenin Solubility: 0.00 % w/w
[2]; solvent: C15-19 alkane
  Naringenin Solubility: 0.00 % w/w
[2]; solvent: Capric/caprylic triglyceride
  Naringenin Solubility: 0.00 % w/w
[2]; solvent: Di(propylene glycol) dibenzoate
  Naringenin Solubility: 0.00 % w/w
[2]; solvent: Dimethyl isosorbide
  Naringenin Solubility: 15.00 % w/w
[2]; solvent: Ethoxydiglycol
  Naringenin Solubility: 20.00 % w/w
[2]; solvent: Isoamyl laurate
  Naringenin Solubility: 0.00 % w/w
[2]; solvent: Isopentyldiol
  Naringenin Solubility: 2.50 % w/w
[2]; solvent: Isopropyl lauryol sarcosinate
  Naringenin Solubility: 10.00 % w/w
[2]; solvent: Isopropyl myristate
  Naringenin Solubility: 0.00 % w/w
[2]; solvent: Neopentyl glycol diethylhexanoate
  Naringenin Solubility: 0.00 % w/w
[2]; solvent: Oleyl alcohol
  Naringenin Solubility: 0.00 % w/w
[2]; solvent: Pentylene glycol
  Naringenin Solubility: 2.50 % w/w
[2]; solvent: Phenylpropanol
  Naringenin Solubility: 5.00 % w/w
[2]; solvent: Propanediol
  Naringenin Solubility: 2.50 % w/w
[2]; solvent: Squalene
  Naringenin Solubility: 0.00 % w/w
[2]; solvent: Tri C12-C13 alkyl citrate
  Naringenin Solubility: 0.00 % w/w
[2]; solvent: Tributyl citrate
  Naringenin Solubility: 0.00 % w/w
[2]; solvent: Tributyl-O-acetylcitrate
  Naringenin Solubility: 0.00 % w/w
[2]; solvent: Triethyl O-acetylcitrate
  Naringenin Solubility: 0.00 % w/w
[2]; solvent: Triethyl citrate
  Naringenin Solubility: 0.00 % w/w
[2]; solvent: Triisostearin
  Naringenin Solubility: 0.00 % w/w
[2]; solvent: jojoba oil
  Naringenin Solubility: 0.00 % w/w
[2]; solvent: sunflower oil
  Naringenin Solubility: 0.00 % w/w
[3]
  Fold-increase in expression and/or activity of LCE2B: ~9 fold
[4]
  Fold-increase in expression and/or activity of MUCL1: 11 fold
[5]
  fold downregulation in expression and/or activity of IL13RA2: ~10 fold
[5]; negative = downregulation
  Fold-increase (downregulation table) IL13RA2: −10 fold
[6]
  Fold-increase in expression and/or activity of HAL: 8 fold
[7]
  fold downregulation in expression and/or activity of IL23A: ~18 fold
[8]
  fold downregulation in expression and/or activity of GDF15: ~6 fold
[8]; negative = downregulation
  Fold-increase (downregulation table) GDF15: −6 fold
[9]
  Fold-increase (downregulation table) THBS1: −6 fold
